Values of other authors in US20110256545A1, “mRNA expression-based prognostic gene signature for non-small cell lung cancer” (priority 2010, published 2011).
Entries after “also recorded” stand apart in the source; their conditions may differ.

Test system: NCI-60 cell lines
Settings: the value is the cell line; for Resistant lung cancer cell lines: NCI-60 lung cancer (LC) cell lines classed as resistant to the agent; for Sensitive lung cancer cell lines: NCI-60 lung cancer (LC) cell lines classed as sensitive to the agent

Question: For N.N.O=C([O-])C1(C(=O)[O-])CCC1.[Pt+2] [Carboplatin], which “Resistant lung cancer cell lines” value is on record?
Answer: LC: EKVX

Question: What about the “Sensitive lung cancer cell lines” value of the same compound?
Answer: LC: NCI_H460; also recorded: LC: NCI_H522

Question: Which “Resistant lung cancer cell lines” value does the source give for COc1cc([C@@H]2c3cc4c(cc3[C@@H](O[C@@H]3O[C@@H]5CO[C@@H](C)O[C@H]5[C@H](O)[C@H]3O)[C@H]3COC(=O)[C@H]23)OCO4)cc(OC)c1O [Etoposide] here?
Answer: LC: EKVX

Question: And the “Sensitive lung cancer cell lines” value?
Answer: LC: HOP_62; also recorded: LC: NIC_H460

Question: For N.N.[Cl][Pt][Cl] [Cisplatin], which “Resistant lung cancer cell lines” value is on record?
Answer: LC: NCI_H226; also recorded: LC: EKVX

Question: And the “Sensitive lung cancer cell lines” value?
Answer: LC: HOP_62; also recorded: LC: NCI_H460

Question: What does the source list for CC(=O)O[C@H]1C(=O)[C@@]2(C)[C@H]([C@H](OC(=O)c3ccccc3)[C@]3(O)C[C@H](OC(=O)[C@H](O)[C@@H](NC(=O)c4ccccc4)c4ccccc4)C(C)=C1C3(C)C)[C@]1(OC(C)=O)CO[C@@H]1C[C@@H]2O [Paclitaxel]?
Answer: Resistant lung cancer cell lines: LC: HOP_92; also recorded: LC_EKVX; Sensitive lung cancer cell lines: LC: NCI_H460; also recorded: LC: NCI_H522
